How the values were obtained:
[1] = Cytotoxicity against human MT2 cells; type: cell-based
[2] = system: Human immunodeficiency virus 1; experiment: Antiviral activity against wild type HIV1 NL4-3 habouring Gag protein V370A mutant infected in human MT2 cells after 4 to 5 days by dual-luciferase reporter gene assay; type: functional, organism-based; conditions: Human immunodeficiency virus 1, NL4-3, MT2
[3] = system: Human immunodeficiency virus 1; experiment: Antiviral activity against wild type HIV1 NL4-3 habouring Gag protein delta V370 infected in human MT2 cells after 4 to 5 days by dual-luciferase reporter gene assay; type: functional, organism-based; conditions: Human immunodeficiency virus 1, NL4-3, MT2
[4] = system: Human immunodeficiency virus 1; experiment: Antiviral activity against wild type HIV1 NL4-3 infected in human MT2 cells after 4 to 5 days by dual-luciferase reporter gene assay; type: functional, organism-based; conditions: Human immunodeficiency virus 1, NL4-3, MT2

Compound	CC50 [1] [nM]	EC50 [2] [nM]	EC50 [3] [nM]	EC50 [4] [nM]
C=C(C)[C@@H]1CC[C@]2(C(=O)NCCN)CC[C@]3(C)[C@H](CC[C@@H]4[C@@]5(C)CC=C(c6ccc(C(=O)O)cc6)C(C)(C)[C@@H]5CC[C@]43C)[C@@H]12	4000	7	702	3
C=C(C)[C@@H]1CC[C@]2(C(=O)NCC(=O)O)CC[C@]3(C)[C@H](CC[C@@H]4[C@@]5(C)CC=C(c6ccc(C(=O)O)cc6)C(C)(C)[C@@H]5CC[C@]43C)[C@@H]12	> 50000	> 2000	> 2000	106
C=C(C)[C@@H]1CC[C@]2(C(=O)N[C@@H](CN(C)C)C(=O)O)CC[C@]3(C)[C@H](CC[C@@H]4[C@@]5(C)CC=C(c6ccc(C(=O)O)cc6)C(C)(C)[C@@H]5CC[C@]43C)[C@@H]12	25000	772	> 160	46
C=C(C)[C@@H]1CC[C@]2(C(=O)NCCNCC(=O)O)CC[C@]3(C)[C@H](CC[C@@H]4[C@@]5(C)CC=C(c6ccc(C(=O)O)cc6)C(C)(C)[C@@H]5CC[C@]43C)[C@@H]12	> 2000	15	61	42
C=C(C)[C@@H]1CC[C@]2(C(=O)NCc3nccs3)CC[C@]3(C)[C@H](CC[C@@H]4[C@@]5(C)CC=C(c6ccc(C(=O)O)cc6)C(C)(C)[C@@H]5CC[C@]43C)[C@@H]12	6000	28	690	15
C=C(C)[C@@H]1CC[C@]2(C(=O)NCCN(CC)CCC(=O)O)CC[C@]3(C)[C@H](CC[C@@H]4[C@@]5(C)CC=C(c6ccc(C(=O)O)cc6)C(C)(C)[C@@H]5CC[C@]43C)[C@@H]12	> 17000	6	119	2
C=C(C)[C@@H]1CC[C@]2(C(=O)NCCN(C)C(C)=O)CC[C@]3(C)[C@H](CC[C@@H]4[C@@]5(C)CC=C(c6ccc(C(=O)O)cc6)C(C)(C)[C@@H]5CC[C@]43C)[C@@H]12	9000	2	224	3
C=C(C)[C@@H]1CC[C@]2(C(=O)NCCN3CCCCC3)CC[C@]3(C)[C@H](CC[C@@H]4[C@@]5(C)CC=C(c6ccc(C(=O)O)cc6)C(C)(C)[C@@H]5CC[C@]43C)[C@@H]12	10000	10	359	7
C=C(C)[C@@H]1CC[C@]2(C(=O)NCCN(C)CC(=O)O)CC[C@]3(C)[C@H](CC[C@@H]4[C@@]5(C)CC=C(c6ccc(C(=O)O)cc6)C(C)(C)[C@@H]5CC[C@]43C)[C@@H]12	200	51	160	10
C=C(C)[C@@H]1CC[C@]2(C(=O)NCC(N)=O)CC[C@]3(C)[C@H](CC[C@@H]4[C@@]5(C)CC=C(c6ccc(C(=O)O)cc6)C(C)(C)[C@@H]5CC[C@]43C)[C@@H]12	9000	32	2000	6
C=C(C)[C@@H]1CC[C@]2(C(=O)NCC(C)(C)N)CC[C@]3(C)[C@H](CC[C@@H]4[C@@]5(C)CC=C(c6ccc(C(=O)O)cc6)C(C)(C)[C@@H]5CC[C@]43C)[C@@H]12	20000	21	800	7
C=C(C)[C@@H]1CC[C@]2(C(=O)NCCOC)CC[C@]3(C)[C@H](CC[C@@H]4[C@@]5(C)CC=C(c6ccc(C(=O)O)cc6)C(C)(C)[C@@H]5CC[C@]43C)[C@@H]12	14000	152		17
C=C(C)[C@@H]1CC[C@]2(C(=O)NCCN(CC(=O)O)CC(=O)O)CC[C@]3(C)[C@H](CC[C@@H]4[C@@]5(C)CC=C(c6ccc(C(=O)O)cc6)C(C)(C)[C@@H]5CC[C@]43C)[C@@H]12	> 20000	> 2000	> 2000	> 2000
